According to patent US20250382332A1, “NOVEL ALPHA-FACTOR BASED PEPTIDES WITH ANTIFUNGAL ACTIVITY” (INVAIO SCIENCES, INC., priority 2024, published 2025):
Peptide text beside a SMILES is read from it.

Test system: Botrytis cinerea (B05.10)
Assay: Resazurin antifungal assay of 180 alpha-factor peptide variants towards Botrytis (Example 2)
Type: cell-based
Design: key to active against Botrytis at 15 μM / active against Botrytis at 10 μM: Peptides that showed greater than 90% inhibition were considered active against Botrytis
Conditions: for Inhibition at 10 μM / Inhibition at 20 μM / Inhibition at 50 μM / Inhibition at 100 μM / Inhibition at 15 μM: % inhibition of fungal growth, Botrytis conidia, resazurin; for Inhibition at 10 μM: peptide 10 μM; for Inhibition at 20 μM: peptide 20 μM; for Inhibition at 50 μM: peptide 50 μM; for Inhibition at 100 μM: peptide 100 μM; for Inhibition at 15 μM / active against Botrytis at 15 μM: peptide 15 μM
Experimental: The antifungal activity of 180 alpha-factor peptide variants towards Botrytis was tested. Experimental design:
Peptides corresponding to SEQ ID NO: 1-180 were chemically synthesized using the solid-phase synthesis method and resuspended in water to a stock solution of 1 mM. The stock solution was aliquoted in cryovials and stored at −80° C.
The Botrytis cinerea culture (B05.10) isolate was acquired from the Centraalbureau voor Schimmelcultures, the Netherlands. The Botrytis fungus was propagated on 0.5% V8 agar plates (200 ml V8 Juice, 3 g CaCO3, 15 g agar, 800-ml millipore water) at 20° C., in a 12 h photoperiod for 21 days.
Fungal conidia were harvested by scraping a Botrytis plate flooded with 1 ml water with 0.1% Tween 80 solution. Conidia were then collected in a 50 ml falcon tube by passing the solution through a 40 micron filter. The solution was then centrifuged at 6000 rpm and the pellet was resuspended in 1 ml of 20% glycerol. The conidia concentration of the resulting solution was counted using a hemocytometer. The stock was diluted to […] using 20% glycerol and frozen in 100 μl aliquots in −80° C. until further use.
Peptides were tested for activity against Botrytis, using the resazurin assay. For this, fungal stock conidia was first diluted to 5000 conidia/well. 50 μl of the spore suspension was added to each well of the sterile 96-well clear bottom testing plate and mixed with 50 μl of peptide solutions to a final concentration of 100, 50, 20, 15 and 10 μM. The plate was incubated for 24 h at 20° C. After 24 h, 10 μl of resazurin dye was added to the microtiter plate and incubated again for […]. Fluorescence was measured at 570/620 nm after 4 h of incubation with resazurin.
Growth inhibition was calculated by subtracting the fluorescence values of conidia only wells from sample wells and depicted as % inhibition of fungal growth. Four technical replicates were used for all treatments.

Structure (SMILES): CSCC[C@H](NC(=O)[C@H](CO)NC(=O)[C@H](CCC(N)=O)NC(=O)CNC(=O)[C@H](CCCNC(=N)N)NC(=O)[C@H](Cc1c[nH]c2ccccc12)NC(=O)[C@H](Cc1ccccc1)NC(=O)[C@H](CCC(N)=O)NC(=O)[C@H](CC(C)C)NC(=O)[C@H](Cc1c[nH]c2ccccc12)NC(=O)[C@H](Cc1c[nH]cn1)NC(=O)[C@@H](N)Cc1c[nH]c2ccccc12)C(=O)N[C@@H](Cc1ccc(O)cc1)C(=O)O [compound 1] (H-WHWLQFWRGQSMY-OH; N-terminus and C-terminus assumed)
- Inhibition at 10 μM: <90%
- Inhibition at 20 μM: <90%
- Inhibition at 50 μM: 100%
- Inhibition at 100 μM: 100%

Structure (SMILES): CSCC[C@H](NC(=O)[C@@H]1CCCN1C(=O)[C@H](CCC(N)=O)NC(=O)CNC(=O)[C@H](CCCCN)NC(=O)[C@H](CCCCN)NC(=O)[C@H](Cc1ccccc1)NC(=O)[C@H](CO)NC(=O)CNC(=O)[C@H](Cc1c[nH]c2ccccc12)NC(=O)[C@H](Cc1c[nH]cn1)NC(=O)[C@@H]1CCCN1)C(=O)N[C@@H](Cc1ccc(O)cc1)C(=O)O [compound 2] (H-PHWGSFKKGQPMY-OH; N-terminus and C-terminus assumed)
- Inhibition at 10 μM: <90%
- Inhibition at 20 μM: <90%
- Inhibition at 50 μM: 100%
- Inhibition at 100 μM: 100%

Structure (SMILES): CSCC[C@H](NC(=O)[C@@H]1CCCN1C(=O)[C@H](C)NC(=O)CNC(=O)[C@H](Cc1c[nH]c2ccccc12)NC(=O)[C@H](CCCCN)NC(=O)[C@H](CC(C)C)NC(=O)[C@@H](NC(=O)[C@@H](NC(=O)[C@H](Cc1c[nH]c2ccccc12)NC(=O)[C@H](Cc1c[nH]cn1)NC(=O)[C@@H](N)CCCCN)C(C)C)[C@@H](C)O)C(=O)N[C@@H](Cc1ccc(O)cc1)C(=O)O [compound 3] (H-KHWVTLKWGAPMY-OH; N-terminus and C-terminus assumed)
- Inhibition at 10 μM: <90%
- Inhibition at 15 μM: <90%
- Inhibition at 20 μM: 100.61%
- Inhibition at 50 μM: 100%
- Inhibition at 100 μM: 100%

Structure (SMILES): CSCC[C@H](NC(=O)[C@@H]1CCCN1C(=O)[C@H](CCC(N)=O)NC(=O)CNC(=O)[C@@H]1CCCN1C(=O)[C@H](CCCCN)NC(=O)[C@H](Cc1ccccc1)NC(=O)[C@H](CCCNC(=N)N)NC(=O)[C@H](CC(C)C)NC(=O)[C@H](CC(C)C)NC(=O)[C@H](Cc1c[nH]cn1)NC(=O)[C@@H](N)Cc1c[nH]c2ccccc12)C(=O)N[C@@H](Cc1ccc(O)cc1)C(=O)O [compound 4] (H-WHLLRFKPGQPMY-OH; N-terminus and C-terminus assumed)
- Inhibition at 10 μM: <90%
- Inhibition at 20 μM: <90%
- Inhibition at 50 μM: 100%
- Inhibition at 100 μM: 100%

Structure (SMILES): CSCC[C@H](NC(=O)[C@@H]1CCCN1C(=O)[C@H](CCC(N)=O)NC(=O)CNC(=O)[C@@H]1CCCN1C(=O)[C@H](CCCCN)NC(=O)[C@H](Cc1ccccc1)NC(=O)[C@H](CCCNC(=N)N)NC(=O)[C@H](CC(C)C)NC(=O)[C@H](Cc1c[nH]c2ccccc12)NC(=O)[C@H](Cc1c[nH]cn1)NC(=O)[C@@H]1CCCN1)C(=O)N[C@@H](Cc1ccc(O)cc1)C(=O)O [compound 5] (H-PHWLRFKPGQPMY-OH; N-terminus and C-terminus assumed)
- Inhibition at 10 μM: <90%
- Inhibition at 20 μM: <90%
- Inhibition at 50 μM: 100%
- Inhibition at 100 μM: 100%

Structure (SMILES): CSCC[C@H](NC(=O)[C@@H]1CCCN1C(=O)[C@H](C)NC(=O)CNC(=O)[C@H](CCCNC(=N)N)NC(=O)[C@H](CCCCN)NC(=O)[C@H](CC(C)C)NC(=O)[C@H](CCC(N)=O)NC(=O)[C@@H](NC(=O)[C@H](Cc1c[nH]c2ccccc12)NC(=O)[C@H](Cc1c[nH]cn1)NC(=O)[C@@H]1CCCN1)C(C)C)C(=O)N[C@@H](Cc1ccc(O)cc1)C(=O)O [compound 6] (H-PHWVQLKRGAPMY-OH; N-terminus and C-terminus assumed)
- Inhibition at 10 μM: <90%
- Inhibition at 20 μM: <90%
- Inhibition at 50 μM: 100%
- Inhibition at 100 μM: 100%

Structure (SMILES): CC[C@H](C)[C@H](NC(=O)[C@H](CCC(N)=O)NC(=O)[C@H](CC(C)C)NC(=O)[C@H](Cc1c[nH]c2ccccc12)NC(=O)[C@H](Cc1c[nH]cn1)NC(=O)[C@@H](N)CCCCN)C(=O)N[C@@H](CCCCN)C(=O)N[C@@H](Cc1ccc(O)cc1)C(=O)NCC(=O)N[C@@H](CCC(=O)O)C(=O)N1CCC[C@H]1C(=O)N[C@@H](CCSC)C(=O)N[C@@H](Cc1ccc(O)cc1)C(=O)O [compound 7] (H-KHWLQIKYGEPMY-OH; N-terminus and C-terminus assumed)
- Inhibition at 10 μM: <90%
- Inhibition at 20 μM: <90%
- Inhibition at 50 μM: 100%
- Inhibition at 100 μM: 100%

Structure (SMILES): CC[C@H](C)[C@H](NC(=O)[C@H](Cc1c[nH]c2ccccc12)NC(=O)[C@H](Cc1c[nH]cn1)NC(=O)[C@@H](N)CCCCN)C(=O)N[C@@H](CCCCN)C(=O)N[C@@H](CC(C)C)C(=O)N[C@@H](CCSC)C(=O)N1CCC[C@H]1C(=O)NCC(=O)N[C@@H](CCC(N)=O)C(=O)NCC(=O)N[C@@H](CCSC)C(=O)N[C@@H](Cc1ccc(O)cc1)C(=O)O [compound 8] (H-KHWIKLMPGQGMY-OH; N-terminus and C-terminus assumed)
- Inhibition at 10 μM: <90%
- Inhibition at 20 μM: <90%
- Inhibition at 50 μM: 100%
- Inhibition at 100 μM: 100%

Structure (SMILES): CSCC[C@H](NC(=O)[C@@H]1CCCN1C(=O)[C@H](CCC(N)=O)NC(=O)CNC(=O)[C@@H]1CCCN1C(=O)[C@H](CCCCN)NC(=O)[C@H](Cc1ccccc1)NC(=O)[C@H](CCCNC(=N)N)NC(=O)[C@H](CC(C)C)NC(=O)[C@H](Cc1c[nH]c2ccccc12)NC(=O)[C@H](Cc1c[nH]cn1)NC(=O)[C@@H](N)CCCCN)C(=O)N[C@@H](Cc1ccc(O)cc1)C(=O)O [compound 9] (H-KHWLRFKPGQPMY-OH; N-terminus and C-terminus assumed)
- Inhibition at 10 μM: <90%
- Inhibition at 15 μM: 100%
- Inhibition at 20 μM: 100%
- Inhibition at 50 μM: 100%
- Inhibition at 100 μM: 100%
- active against Botrytis at 15 μM: active

Structure (SMILES): CC[C@H](C)[C@H](NC(=O)[C@H](CCC(N)=O)NC(=O)[C@@H](NC(=O)[C@H](Cc1c[nH]c2ccccc12)NC(=O)[C@H](Cc1c[nH]cn1)NC(=O)[C@@H]1CCCN1)C(C)C)C(=O)N[C@@H](CCCCN)C(=O)N[C@@H](CC(C)C)C(=O)NCC(=O)N[C@@H](CCC(N)=O)C(=O)N1CCC[C@H]1C(=O)N[C@@H](CCSC)C(=O)N[C@@H](Cc1ccc(O)cc1)C(=O)O [compound 10] (H-PHWVQIKLGQPMY-OH; N-terminus and C-terminus assumed)
- Inhibition at 10 μM: <90%
- Inhibition at 20 μM: <90%
- Inhibition at 50 μM: 100%
- Inhibition at 100 μM: 100%

Structure (SMILES): CC[C@H](C)[C@H](NC(=O)[C@H](Cc1c[nH]c2ccccc12)NC(=O)[C@H](Cc1c[nH]cn1)NC(=O)[C@@H](N)CCCCN)C(=O)N[C@H](C(=O)N[C@@H](Cc1ccccc1)C(=O)N[C@@H](CCCCN)C(=O)N1CCC[C@H]1C(=O)NCC(=O)N[C@@H](CCC(N)=O)C(=O)N1CCC[C@H]1C(=O)N[C@@H](CCSC)C(=O)N[C@@H](Cc1ccc(O)cc1)C(=O)O)[C@@H](C)O [compound 11] (H-KHWITFKPGQPMY-OH; N-terminus and C-terminus assumed)
- Inhibition at 10 μM: <90%
- Inhibition at 20 μM: <90%
- Inhibition at 50 μM: 100%
- Inhibition at 100 μM: 100%

Structure (SMILES): CSCC[C@H](NC(=O)[C@@H]1CCCN1C(=O)[C@H](CCC(N)=O)NC(=O)CNC(=O)[C@@H]1CCCN1C(=O)[C@H](CCCCN)NC(=O)[C@H](Cc1ccccc1)NC(=O)[C@H](CCCNC(=N)N)NC(=O)[C@H](CC(C)C)NC(=O)[C@@H](NC(=O)[C@H](Cc1c[nH]cn1)NC(=O)[C@@H](N)CCCCN)C(C)C)C(=O)N[C@@H](Cc1ccc(O)cc1)C(=O)O [compound 12] (H-KHVLRFKPGQPMY-OH; N-terminus and C-terminus assumed)
- Inhibition at 10 μM: <90%
- Inhibition at 15 μM: 98.79%
- Inhibition at 20 μM: 99.94%
- Inhibition at 50 μM: 100%
- Inhibition at 100 μM: 100%
- active against Botrytis at 15 μM: active

Structure (SMILES): CSCC[C@H](NC(=O)[C@@H]1CCCN1C(=O)[C@H](CCC(N)=O)NC(=O)CNC(=O)[C@@H]1CCCN1C(=O)[C@H](CCCCN)NC(=O)[C@H](Cc1ccccc1)NC(=O)[C@H](CCCCN)NC(=O)[C@H](CC(C)C)NC(=O)[C@H](Cc1c[nH]c2ccccc12)NC(=O)[C@H](Cc1c[nH]cn1)NC(=O)[C@@H](N)CCCCN)C(=O)N[C@@H](Cc1ccc(O)cc1)C(=O)O [compound 13] (H-KHWLKFKPGQPMY-OH; N-terminus and C-terminus assumed)
- Inhibition at 10 μM: <90%
- Inhibition at 15 μM: 100%
- Inhibition at 20 μM: 100%
- Inhibition at 50 μM: 100%
- Inhibition at 100 μM: 100%
- active against Botrytis at 15 μM: active
